Source: patent US20180258381A1, “BIO-LAMINA BIOREACTORS AND METHODS OF MAKING AND USING THE SAME” (Oregon State University, priority 2015, published 2018)

Assays:
MDH = MDH activity reactivity assay (methanol SOUR), inhibitor trials; format: cell-based, M. trichosporium OB3b
Procedure: The procedure for measuring methanol dehydrogenase (MDH) activity by measuring the specific oxygen uptake rate (SOUR) has been tested on M. trichosporium OB3b cultures grown both in batch and in the chemostat. M. trichosporium OB3b cells were harvested using centrifugation. The supernatant was poured off and the cells were re-suspended in fresh media lacking a carbon source. Phosphate buffer solution was added to a sample chamber in which dissolved oxygen (DO) was measure with a DO probe. When the DO of the solution stabilized, the re-suspended cells were added to the sample chamber to measure baseline oxygen uptake by the cells without a carbon food source present. Methanol was then added to test for MDH activity. The difference in the oxygen uptake rates illustrates the MDH activity of the culture.
Metabolic activity test methods have been developed to monitor specific activities in M. trichosporium OB3b cultures. A naphthalene oxidation assay was used to determine if sMMO is being expressed. An ethylene to ethylene oxide reaction assay and a methane oxidation assay was used to quantify MMO activity, and a methanol oxidation assay was used to estimate MDH activity. Concurrent batch metabolic tests can be conducted to investigate methanol inhibition of methane oxidation, cyclopropane to cyclopropanol conversion and concurrent/subsequent cyclopropanol inhibition of MDH activity, the effect of cyclopropanol inhibition on growth yield, and the effects of high oxygen concentration.
The effect of salts NaCl, NH4Cl and CaCl2 on MMO and MDH activity was evaluated using the reactivity assays described above.

[1] = system: M. trichosporium OB3b culture; assay: CP exposure of culture immobilized in alginate beads, sequencing batch reactors; format: cell-based; conditions: for MeOH Accumulation Efficiency (MeOH accumulation/CH4 consumed): initial 24 hours of incubation with CH4
Procedure: In some embodiments, M. trichosporium OB3b culture was immobilized in alginate beads. M. trichosporium OB3b culture expressing sMMO was harvested and suspended to a final density of 10 g cell protein/L in 2% alginate. The alginate/cell mixture was extruded through a syringe needle into 100 mM CaCl2 to crosslink the alginate matrix, forming stable beads. Beads were rinsed with dH2O and re-suspended in 1/10 strength (dilute) growth media. M. trichosporium OB3b culture prepared this way is ideal for experimental manipulation such as CH4 or MeOH rate determinations after inhibitor exposure because beads can be quickly rinsed to remove trace inhibitor. OB3b culture immobilized in alginate in this way maintained activity for >7 days.
A chemostat grown, sMMO expressing, M. trichosporium OB3b culture was immobilized in alginate beads, and exposed to CP for 2, 6, and 18 hours in the absence of CH4. After inhibition, the consumption of CH4 and accumulation of MeOH was monitored in the presence and absence of 20 mM formate in sequencing batch reactors (FIGS. 37A-37C). Alginate beads were rinsed, at 24 hour intervals, before suspension in fresh media plus CH4. There was no significant difference: i) in the rate of methane consumption in the treatments that were exposed to CP for 2, 6 or 18 h (p>0.5, 30-80 μmol CH4 consumed/d, Table 2); ii) in the efficiency of MeOH accumulation in any of the treatments (Table 2); and, in the effect of formate on MeOH accumulation (P>0.18) for any exposure time, probably due to lack of complete MDH inhibition (Table 3). It was also observed that MeOH accumulated to a greater degree during days 2 and 3 in treatments after 6 or 18 hours of CP exposure.

C1CC1 [CP, cyclopropane]
Fraction of Activity Remaining, MDH (MDH; CP 03 μmol): 0.9 | Fraction of Activity Remaining, MDH (MDH; CP 32 μmol): 0.2 | Fraction of Activity Remaining, MDH (MDH; CP 64 μmol): 0.1 | Rates of MeOH consumption, Post Exposure ([1]; CP exposure 2 h): 0.4 (0.0) μmol/h/mg protein | MeOH Accumulation Efficiency (MeOH accumulation/CH4 consumed) ([1]; CP exposure 2 h): 19 (4) % | Rates of MeOH consumption, Post Exposure ([1]; CP exposure 6 h): 0.6 (0.1) μmol/h/mg protein | MeOH Accumulation Efficiency (MeOH accumulation/CH4 consumed) ([1]; CP exposure 6 h): 43 (1) % | Rates of MeOH consumption, Post Exposure ([1]; CP exposure 18 h): 0.3 (0.1) μmol/h/mg protein | MeOH Accumulation Efficiency (MeOH accumulation/CH4 consumed) ([1]; CP exposure 18 h): 13 (1) % | rate of methane consumption ([1]; treatments exposed to CP for 2, 6 or 18 h): 30-80 μmol CH4 consumed/d
